Source: ChEMBL document CHEMBL1201862, “PubChem BioAssay data set” (2004)
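A five-concentration, 48-hour dose response in 96-well plates underlies each endpoint, interpolated linearly between surrounding concentrations. GI50 marks 50% less growth.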 Activity calls are given as the source filed them. No stated cut-off is given here; in the data, active = GI50 up to about 1.1 µM and inactive = higher.

Columns and labels:
Assay in all cases: inhibition of tumour cell growth, NCI panel, 48 h
[1] = test system: NCI-H522
[2] = test system: NCI/ADR-RES
[3] = test system: MDA-MB-231
[4] = test system: HOP-62
[5] = test system: HCC 2998
[6] = test system: DU-145
[7] = test system: MCF7
[8] = test system: Malme-3M
[9] = test system: CAKI-1
[10] = test system: SK-MEL-5
[11] = test system: SN12C
[12] = test system: SF-268
[13] = test system: U-251
[14] = test system: A498
[15] = test system: ACHN
[16] = test system: NCI-H460
[17] = test system: Hs-578T
[18] = test system: OVCAR-3
[19] = test system: T47D

Compound: c1ccc(/N=C2\SC(c3ccccc3)CN2C23CC4CC(CC(C4)C2)C3)cc1 (centres undefined)
- GI50 [1]: > 100 µM (inactive)
- GI50 [2]: > 100 µM (inactive)
- GI50 [3]: > 100 µM (inactive)
- GI50 [4]: > 100 µM (inactive)
- GI50 [5]: > 100 µM (inactive)
- GI50 [6]: > 100 µM (inactive)
- GI50 [7]: > 100 µM (inactive)
- GI50 [8]: > 100 µM (inactive)
- GI50 [9]: > 100 µM (inactive)
- GI50 [10]: > 100 µM (inactive)
- GI50 [11]: > 100 µM (inactive)
- GI50 [12]: > 100 µM (inactive)
- GI50 [13]: > 100 µM (inactive)
- GI50 [14]: > 100 µM (inactive)
- GI50 [15]: > 100 µM (inactive)
- GI50 [16]: > 100 µM (inactive)
- GI50 [17]: > 100 µM (inactive)
- GI50 [18]: > 100 µM (inactive)

Compound: OCC(O)COCn1cc(Cn2ncc3c(O)ncnc32)nn1 (centres undefined)
- GI50 [1]: 28.5 µM (inactive)
- GI50 [2]: > 100 µM (inactive)
- GI50 [3]: > 100 µM (inactive)
- GI50 [4]: > 100 µM (inactive)
- GI50 [5]: > 100 µM (inactive)
- GI50 [6]: > 100 µM (inactive)
- GI50 [7]: > 100 µM (inactive)
- GI50 [9]: > 100 µM (inactive)
- GI50 [10]: > 100 µM (inactive)
- GI50 [11]: > 100 µM (inactive)
- GI50 [13]: > 100 µM (inactive)
- GI50 [14]: > 100 µM (inactive)
- GI50 [15]: > 100 µM (inactive)
- GI50 [18]: > 100 µM (inactive)
- GI50 [19]: > 100 µM (inactive)

Compound: Cc1cn(C2CC(N=[N+]=[N-])C(C(=O)O)O2)c(=O)[nH]c1=O (centres undefined)
- GI50 [1]: > 100 µM (inactive)
- GI50 [2]: > 100 µM (inactive)
- GI50 [3]: > 100 µM (inactive)
- GI50 [4]: > 100 µM (inactive)
- GI50 [5]: > 100 µM (inactive)
- GI50 [6]: > 100 µM (inactive)
- GI50 [7]: > 100 µM (inactive)
- GI50 [8]: > 100 µM (inactive)
- GI50 [9]: > 100 µM (inactive)
- GI50 [10]: < 0.01 µM (active)
- GI50 [11]: > 100 µM (inactive)
- GI50 [12]: > 100 µM (inactive)
- GI50 [13]: > 100 µM (inactive)
- GI50 [14]: > 100 µM (inactive)
- GI50 [15]: > 100 µM (inactive)
- GI50 [16]: > 100 µM (inactive)
- GI50 [17]: > 100 µM (inactive)
- GI50 [18]: > 100 µM (inactive)

Compound: Fc1cccc(F)c1C1SCc2nc3cc4ccccc4cc3n21 (centres undefined)
- GI50 [2]: > 100 µM (inactive)
- GI50 [3]: 27.5 µM (inactive)
- GI50 [4]: 95.9 µM (inactive)
- GI50 [5]: 23.9 µM (inactive)
- GI50 [6]: 80.4 µM (inactive)
- GI50 [7]: 47.2 µM (inactive)
- GI50 [8]: 39.2 µM (inactive)
- GI50 [9]: 88.1 µM (inactive)
- GI50 [10]: 21.8 µM (inactive)
- GI50 [11]: 34.1 µM (inactive)
- GI50 [12]: 52.2 µM (inactive)
- GI50 [13]: 30.7 µM (inactive)
- GI50 [14]: 21.2 µM (inactive)
- GI50 [18]: 15.7 µM (inactive)
- GI50 [19]: 23 µM (inactive)

Compound: COc1cc2c3cc1Oc1c(OC)c(OC)cc4c1[C@@H](Cc1ccc(O)c(c1)Oc1ccc(cc1)C[C@@H]3N(C)CC2)N(C)CC4.c1ccccc1
- GI50 [1]: 7.55 µM (inactive)
- GI50 [4]: 18.1 µM (inactive)
- GI50 [5]: 7.93 µM (inactive)
- GI50 [8]: 17.2 µM (inactive)
- GI50 [9]: 1.79 µM (inactive)
- GI50 [10]: 3.89 µM (inactive)
- GI50 [11]: 18.7 µM (inactive)
- GI50 [12]: 23.2 µM (inactive)
- GI50 [13]: 10.1 µM (inactive)
- GI50 [14]: 20.3 µM (inactive)
- GI50 [15]: 17.3 µM (inactive)
- GI50 [16]: 25.2 µM (inactive)
- GI50 [18]: 14.4 µM (inactive)

Compound: c1cc(N(CCn2cccn2)CCn2cccn2)cc(N(CCn2cccn2)CCn2cccn2)c1
- GI50 [1]: > 100 µM (inactive)
- GI50 [4]: > 100 µM (inactive)
- GI50 [5]: > 100 µM (inactive)
- GI50 [9]: > 100 µM (inactive)
- GI50 [10]: > 100 µM (inactive)
- GI50 [11]: > 100 µM (inactive)
- GI50 [12]: > 100 µM (inactive)
- GI50 [13]: > 100 µM (inactive)
- GI50 [14]: > 100 µM (inactive)
- GI50 [15]: > 100 µM (inactive)
- GI50 [16]: > 100 µM (inactive)
- GI50 [18]: > 100 µM (inactive)

Compound: COc1cc(C2C3=C(CCCC3=O)N(c3ccc(C)cc3)C3=C2C(=O)CCC3)c([N+](=O)[O-])cc1OC
- GI50 [2]: > 100 µM (inactive)
- GI50 [5]: > 100 µM (inactive)
- GI50 [7]: 39.4 µM (inactive)
- GI50 [9]: > 100 µM (inactive)
- GI50 [10]: 64.6 µM (inactive)
- GI50 [11]: > 100 µM (inactive)
- GI50 [12]: 97.5 µM (inactive)
- GI50 [13]: 42 µM (inactive)
- GI50 [14]: > 100 µM (inactive)
- GI50 [15]: 65.3 µM (inactive)
- GI50 [16]: > 100 µM (inactive)
- GI50 [17]: 75.9 µM (inactive)
- GI50 [18]: 96.2 µM (inactive)

Compound: COc1ccc(-c2oc3c(OC)c(OC)c(OC)c(O)c3c(=O)c2OC)cc1O
- GI50 [1]: < 0.01 µM (active)
- GI50 [4]: 0.403 µM (active)
- GI50 [5]: 2.11 µM (inactive)
- GI50 [8]: 0.065 µM (active)
- GI50 [9]: 0.557 µM (active)
- GI50 [10]: 0.113 µM (active)
- GI50 [11]: 0.0641 µM (active)
- GI50 [12]: 0.0859 µM (active)
- GI50 [13]: 0.242 µM (active)
- GI50 [14]: 1.6 µM (inactive)
- GI50 [15]: 0.0656 µM (active)
- GI50 [16]: 0.126 µM (active)
- GI50 [18]: 0.0632 µM (active)

Compound: COc1cc(/C=N/N=C(\N)NO)c(Cl)cc1O
- GI50 [1]: 31.4 µM (inactive)
- GI50 [5]: 61.5 µM (inactive)
- GI50 [8]: 68.7 µM (inactive)
- GI50 [9]: 78 µM (inactive)
- GI50 [10]: 51.5 µM (inactive)
- GI50 [11]: 58.2 µM (inactive)
- GI50 [12]: 85.1 µM (inactive)
- GI50 [13]: > 100 µM (inactive)
- GI50 [14]: 99.8 µM (inactive)
- GI50 [15]: 42.5 µM (inactive)
- GI50 [16]: > 10 µM (inactive)

Compound: COC(=O)c1c(O)ccc2c1c1c(n2Cc2ccccn2)C(=O)c2ccccc2C1
- GI50 [2]: 44.4 µM (inactive)
- GI50 [3]: > 100 µM (inactive)
- GI50 [4]: > 100 µM (inactive)
- GI50 [6]: > 100 µM (inactive)
- GI50 [7]: 22.9 µM (inactive)
- GI50 [8]: > 100 µM (inactive)
- GI50 [9]: 19.1 µM (inactive)
- GI50 [10]: > 100 µM (inactive)
- GI50 [11]: > 100 µM (inactive)
- GI50 [12]: 74.5 µM (inactive)
- GI50 [13]: > 100 µM (inactive)
- GI50 [14]: > 100 µM (inactive)
- GI50 [16]: 50.2 µM (inactive)
- GI50 [17]: > 100 µM (inactive)
- GI50 [18]: > 100 µM (inactive)

Compound: C=C(COC(C)=O)CC(OC(C)=O)c1ccccc1 (centres undefined)
- GI50 [1]: > 100 µM (inactive)
- GI50 [4]: > 100 µM (inactive)
- GI50 [5]: > 100 µM (inactive)
- GI50 [10]: > 100 µM (inactive)
- GI50 [11]: > 100 µM (inactive)
- GI50 [12]: > 100 µM (inactive)
- GI50 [13]: > 100 µM (inactive)
- GI50 [14]: > 100 µM (inactive)
- GI50 [15]: > 100 µM (inactive)
- GI50 [16]: > 100 µM (inactive)
- GI50 [18]: > 100 µM (inactive)

Compound: COc1ccc(/C=C/C(=O)CCN2CCN(CCC(=O)/C=C/c3ccc(OC)cc3)CC2)cc1
- GI50 [2]: 36.4 µM (inactive)
- GI50 [3]: 12.6 µM (inactive)
- GI50 [4]: 20.6 µM (inactive)
- GI50 [5]: 12.2 µM (inactive)
- GI50 [6]: 26.2 µM (inactive)
- GI50 [7]: 3.56 µM (inactive)
- GI50 [8]: 18.7 µM (inactive)
- GI50 [9]: 13.5 µM (inactive)
- GI50 [10]: 18.1 µM (inactive)
- GI50 [11]: 12.6 µM (inactive)
- GI50 [12]: 17.4 µM (inactive)
- GI50 [13]: 12.1 µM (inactive)
- GI50 [14]: < 0.01 µM (active)
- GI50 [15]: 14.2 µM (inactive)
- GI50 [16]: 11.1 µM (inactive)
- GI50 [17]: 20 µM (inactive)
- GI50 [18]: 11.4 µM (inactive)

Compound: COc1c(O)cc2c(c1O)C1O[C@H](CO)C(O)[C@H](O)[C@H]1OC2=O (some centres undefined)
- GI50 [1]: > 100 µM (inactive)
- GI50 [2]: > 100 µM (inactive)
- GI50 [3]: > 100 µM (inactive)
- GI50 [4]: > 100 µM (inactive)
- GI50 [5]: > 100 µM (inactive)
- GI50 [6]: > 100 µM (inactive)
- GI50 [7]: > 100 µM (inactive)
- GI50 [8]: > 100 µM (inactive)
- GI50 [9]: > 100 µM (inactive)
- GI50 [10]: > 100 µM (inactive)
- GI50 [11]: > 100 µM (inactive)
- GI50 [12]: > 100 µM (inactive)
- GI50 [13]: > 100 µM (inactive)
- GI50 [15]: > 100 µM (inactive)
- GI50 [16]: > 100 µM (inactive)
- GI50 [18]: > 100 µM (inactive)
- GI50 [19]: > 100 µM (inactive)

Compound: C#CCN(Cc1ccc2nc(-c3ccccc3)c(N)nc2c1)c1cc(OC)c(OC)c(OC)c1
- GI50 [1]: 20.9 µM (inactive)
- GI50 [4]: 39.2 µM (inactive)
- GI50 [5]: 57.4 µM (inactive)
- GI50 [8]: 26.9 µM (inactive)
- GI50 [10]: 11.9 µM (inactive)
- GI50 [11]: 32.1 µM (inactive)
- GI50 [12]: 40.7 µM (inactive)
- GI50 [13]: 37 µM (inactive)
- GI50 [15]: 22.8 µM (inactive)
- GI50 [16]: 22 µM (inactive)
- GI50 [18]: 15.4 µM (inactive)
